ChEMBL document CHEMBL5370641, “Structure-Based Optimization and Biological Evaluation of Potent and Selective MMP-7 Inhibitors for Kidney Fibrosis” (J Med Chem, 2023)
Numbered stars: 1 amine (or outer) side, 2 acyl side, 3 side chain; on linkers, the order of the positions; unused ones are H or OH. Square brackets hold non-standard residues; d marks the D form. Peptide text beside a SMILES is read from it. * marks the point of attachment. Benzenesulfonyl(4-Cl,3-CF3) = O=S(=O)(c1ccc(Cl)c(C(F)(F)F)c1)*; Phe(4-CF3) = N[C@@H](Cc1ccc(C(F)(F)F)cc1)C(=O)O; Ala(4-Pyridazinyl) = N[C@@H](Cc1ccnnc1)C(=O)O; γGlu = O=C(O)[C@H](CCC(=O)[*:2])N[*:1]; Phe(2-I) = N[C@@H](Cc1ccccc1I)C(=O)O; hPhe = N[C@@H](CCc1ccccc1)C(=O)O; 2Pal = N[C@@H](Cc1ccccn1)C(=O)O; 3Pal = N[C@@H](Cc1cccnc1)C(=O)O; Phg = N[C@H](C(=O)O)c1ccccc1; Tle = CC(C)(C)[C@H](N)C(=O)O; β3hP = O=C(O)C[C@@H]1CCCN1

Key:
[1] = molecular target: Matrix metalloproteinase-14 (Homo sapiens, UniProt P50281); assay: Inhibition of recombinant human MMP14 using MOCAc-Lys-Pro-Leu-Gly-Leu-A2pr(Dnp)-Ala-Arg-NH2 as substrate preincubated with compound for 15 mins followed by substrate addition and measured after 1 hrs by fluorescence based analysis
[2] = molecular target: T1, Matrilysin (Homo sapiens, UniProt P09237); assay: Inhibition of recombinant human MMP7 using MOCAc-Pro-Leu-Gly-Leu-A2pr-(Dnp)-Ala-Arg-NH2 as substrate preincubated with compound for 15 mins followed by substrate addition and measured after 2 hrs by fluorescence based analysis
T1 sequence (P09237 whole entry): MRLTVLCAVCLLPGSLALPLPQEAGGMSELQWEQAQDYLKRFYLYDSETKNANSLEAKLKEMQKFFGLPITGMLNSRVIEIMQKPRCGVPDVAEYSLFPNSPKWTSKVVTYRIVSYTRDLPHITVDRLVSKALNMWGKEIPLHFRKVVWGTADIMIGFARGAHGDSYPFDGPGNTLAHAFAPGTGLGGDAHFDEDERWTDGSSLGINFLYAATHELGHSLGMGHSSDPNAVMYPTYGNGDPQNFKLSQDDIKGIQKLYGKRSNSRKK

Row | SMILES | IC50 [1] | IC50 [2]
1 | CC(C)(C)[C@H](NC(=O)[C@@H](NC(=O)CNC(=O)CC[C@H](NS(=O)(=O)c1ccc(Cl)c(C(F)(F)F)c1)C(=O)O)c1ccccc1)C(=O)N1CCC[C@H]1CC(N)=O ({Benzenesulfonyl(4-Cl,3-CF3)-γGlu}-G[Phg][Tle][β3hP]-NH2) | 5100 nM | 380 nM
2 | CC(C)(C)[C@H](NC(=O)[C@H](CCc1ccccc1)NC(=O)CNC(=O)CC[C@H](NS(=O)(=O)c1ccc(Cl)c(C(F)(F)F)c1)C(=O)O)C(=O)N1CCC[C@H]1CC(N)=O ({Benzenesulfonyl(4-Cl,3-CF3)-γGlu}-G[hPhe][Tle][β3hP]-NH2) | 4500 nM | 80 nM
3 | CC(C)(C)[C@H](NC(=O)[C@H](Cn1cc(C2CC2)nn1)NC(=O)CNC(=O)CC[C@H](NS(=O)(=O)c1ccc(Cl)c(C(F)(F)F)c1)C(=O)O)C(=O)N1CCC[C@H]1CC(N)=O | 9300 nM | 40 nM
4 | CC(C)(C)[C@H](NC(=O)[C@H](Cc1ccccc1)NC(=O)CNC(=O)CC[C@H](NS(=O)(=O)c1ccc(Cl)c(C(F)(F)F)c1)C(=O)O)C(=O)N1CCC[C@H]1CC(N)=O ({Benzenesulfonyl(4-Cl,3-CF3)-γGlu}-GF[Tle][β3hP]-NH2) | 3200 nM | 13 nM
5 | CC(C)(C)[C@H](NC(=O)[C@H](Cc1ccccc1I)NC(=O)CNC(=O)CC[C@H](NS(=O)(=O)c1ccc(Cl)c(C(F)(F)F)c1)C(=O)O)C(=O)N1CCC[C@H]1CC(N)=O ({Benzenesulfonyl(4-Cl,3-CF3)-γGlu}-G[Phe(2-I)][Tle][β3hP]-NH2) | 3400 nM | 8.8 nM
6 | CC(C)(C)[C@H](NC(=O)[C@H](Cc1ccccn1)NC(=O)CNC(=O)CC[C@H](NS(=O)(=O)c1ccc(Cl)c(C(F)(F)F)c1)C(=O)O)C(=O)N1CCC[C@H]1CC(N)=O ({Benzenesulfonyl(4-Cl,3-CF3)-γGlu}-G[2Pal][Tle][β3hP]-NH2) | 3500 nM | 1.9 nM
7 | CC(C)(C)[C@H](NC(=O)[C@H](Cc1ccc(C(F)(F)F)cc1)NC(=O)CNC(=O)CC[C@H](NS(=O)(=O)c1ccc(Cl)c(C(F)(F)F)c1)C(=O)O)C(=O)N1CCC[C@H]1CC(N)=O ({Benzenesulfonyl(4-Cl,3-CF3)-γGlu}-G[Phe(4-CF3)][Tle][β3hP]-NH2) | 1700 nM | 10 nM
8 | CC(C)(C)[C@H](NC(=O)[C@H](Cc1cccnn1)NC(=O)CNC(=O)CC[C@H](NS(=O)(=O)c1ccc(Cl)c(C(F)(F)F)c1)C(=O)O)C(=O)N1CCC[C@H]1CC(N)=O | 8400 nM | 6 nM
9 | CC(C)(C)[C@H](NC(=O)[C@H](Cc1ccnnc1)NC(=O)CNC(=O)CC[C@H](NS(=O)(=O)c1ccc(Cl)c(C(F)(F)F)c1)C(=O)O)C(=O)N1CCC[C@H]1CC(N)=O ({Benzenesulfonyl(4-Cl,3-CF3)-γGlu}-G[Ala(4-Pyridazinyl)][Tle][β3hP]-NH2) | 1400 nM | 2.8 nM
10 | CC(C)(C)[C@H](NC(=O)[C@H](Cc1cccnc1)NC(=O)CNC(=O)CC[C@H](NS(=O)(=O)c1ccc(Cl)c(C(F)(F)F)c1)C(=O)O)C(=O)N1CCC[C@H]1CC(N)=O ({Benzenesulfonyl(4-Cl,3-CF3)-γGlu}-G[3Pal][Tle][β3hP]-NH2) | 2700 nM | 1.7 nM
